Test results published in the supplement of paper PMC8967900.

What was measured:
Experiment in all cases: selective drug sensitivity score (sDSS, relative to normal bone marrow) (sDSS (score)); higher = more potent and effective on the cell line relative to normal bone marrow cells
Conditions in all cases: 72 h
ALL-PO = test system: ALL-PO
REH = test system: REH
RCH-ACV = test system: RCH-ACV
TANOUE = test system: TANOUE
DND-41 = test system: DND-41
KASUMI-10 = test system: KASUMI-10
LC4-1 = test system: LC4-1
SUP-B15 = test system: SUP-B15
KASUMI-2 = test system: KASUMI-2
NALM-6 = test system: NALM-6
SEM cells = test system: SEM cells
CCRF-CEM = test system: CCRF-CEM
HPB-ALL = test system: HPB-ALL
MHH-CALL-2 = test system: MHH-CALL-2
RPMI-8402 = test system: RPMI-8402
380 = test system: 380
COG-LL-319h = test system: COG-LL-319h
MHH-CALL-4 = test system: MHH-CALL-4
COG-LL-317 = test system: COG-LL-317
COG-LL-394h = test system: COG-LL-394h
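Further: ALL cell lines in 384-well plates, five doses spanning 10,000-fold, each plate scaled between vehicle and 100 µmol/L benzalkonium chloride controls, sDSS an adapted area-under-curve metric.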

SMILES	selective drug sensitivity score (ALL-PO)	selective drug sensitivity score (REH)	selective drug sensitivity score (RCH-ACV)	selective drug sensitivity score (TANOUE)	selective drug sensitivity score (DND-41)	selective drug sensitivity score (KASUMI-10)	selective drug sensitivity score (LC4-1)	selective drug sensitivity score (SUP-B15)	selective drug sensitivity score (KASUMI-2)	selective drug sensitivity score (NALM-6)	selective drug sensitivity score (SEM cells)	selective drug sensitivity score (CCRF-CEM)	selective drug sensitivity score (HPB-ALL)	selective drug sensitivity score (MHH-CALL-2)	selective drug sensitivity score (RPMI-8402)	selective drug sensitivity score 380	selective drug sensitivity score (COG-LL-319h)	selective drug sensitivity score (MHH-CALL-4)	selective drug sensitivity score (COG-LL-317)	selective drug sensitivity score (COG-LL-394h)
Cc1c(-c2ccc(N3CCc4cccc(C(=O)Nc5nc6ccccc6s5)c4C3)nc2C(=O)O)cnn1CC12CC3CC(CC(C3)C1)C2 (top concentration 1000 nM)	-1.86	-2.26	-1.76	-2.26	19.7	3.04	-2.26	9.34	1.04	5.84	-1.66	18.6	25.5	-1.26	13	3.94	19.4	2.24	25.9	7.94
O=C(NOC[C@H](O)CO)c1ccc(F)c(F)c1Nc1ccc(I)cc1F (top concentration 1000 nM)	4.34	-4.16	-1.96	-2.46	8.64	-2.86	6.24	13.5	10.1	7.54	-3.16	1.14	0.74	-0.36	-3.86	2.24	2.44	6.24	-1.66	-0.26
CO[C@@H](C)Cn1c(=O)n(C)c2cnc3ccc(-c4cncc(C(C)(C)O)c4)cc3c21 (top concentration 2500 nM)	4.88	6.78	17.6	-5.12	3.18	-1.02	2.68	6.98	12.3	3.68	5.08	8.48	2.18	6.98	2.78	10.3	5.48	1.08	0.78	-1.82
Cc1cccc(CC(=O)N2CCc3c2ccc(-c2cn(C)c4ncnc(N)c24)c3F)n1 (top concentration 2500 nM)	0.22	9.62	7.02	2.52	-0.68	-0.68	4.72	7.22	-0.68	4.32	0.32	-0.08	-0.68	5.02	5.22	-0.68	0.52	4.22	-0.68	5.42
CNC(=O)c1ccccc1Nc1nc(Nc2ccc3c(c2OC)CCC[C@H](N2CCN(CCO)CC2)C3)ncc1Cl (top concentration 5000 nM)	5.76	-2.24	0.46	-5.34	0.06	5.66	2.96	3.96	-3.24	-1.04	3.06	-2.54	1.66	1.66	-0.74	2.06	8.86	-0.94	-2.14	3.16
COc1cc2ncnc(Oc3cccc(NC(=O)Nc4cc(C(C)(C)C(F)(F)F)on4)c3)c2cc1OC (top concentration 10000 nM)	11.5	5	13.9	0	0	10.8	1.1	28.4	5.2	0	14.5	0.1	0	4.2	4.7	0	12.3	3.4	0	3.9
C[C@@H](Oc1cc(-n2cnc3ccc(CN4CCN(C)CC4)cc32)sc1C(N)=O)c1ccccc1C(F)(F)F (top concentration 10000 nM)	22	21.8	20.9	-11.2	13.2	11	22.6	27.2	15	15.8	28.3	22.7	11.6	18.4	28.8	25.5	14.7	-3.18	25.4	3.22
Nc1nccc(-c2c(-c3ccc(F)cc3)ncn2C2CCCCC2)n1 (top concentration 10000 nM)	3	0.8	13.5	0	3.3	2.5	3.1	2.4	12.6	0	1.2	0.7	0.4	4.1	0.6	1.4	2.5	0	4.4	0
O=C(O)c1ccc(-c2c[nH]c3ncc(-c4ccccc4)cc23)cc1C1CCCC1 (top concentration 10000 nM)	5.86	-1.44	5.76	-1.44	-1.24	5.46	-0.94	-1.44	-1.44	-1.44	7.56	3.66	0.06	11.7	1.66	0.86	1.36	-1.44	2.36	-1.44
C[C@@H]1CN(CC(=O)Nc2ccc3c(c2)Cc2cccc(-c4cc(=O)cc(N5CCOCC5)o4)c2S3)C[C@H](C)O1 (top concentration 25000 nM)	2.02	6.12	8.12	-2.18	4.02	-2.18	4.12	-0.58	-2.08	2.92	2.22	2.62	2.22	0.92	1.82	-1.88	6.72	0.12	-1.78	-0.68
COc1ccc2[nH]cc(/C=C3\C(=O)Nc4ccc(NC(=O)CCN5CCCCC5)cc43)c2c1 (top concentration 50000 nM)	5.18	-1.62	1.08	-2.22	1.38	1.78	-0.42	2.48	-4.72	-2.12	2.18	-0.02	-3.32	-2.82	2.68	-4.62	-4.42	-1.82	2.58	0.18
Cc1nn(C)c(COc2ccc(N3CCN(S(=O)(=O)N(C)C)CC3)cc2)c1-c1cccc2c(CCCOc3cccc4ccccc34)c(C(=O)O)n(CCN3CCOCC3)c12 (top concentration 50000 nM)	8.86	8.46	4.66	2.56	4.56	3.86	6.56	8.16	-0.74	4.26	4.96	9.06	2.16	7.86	4.86	0.86	5.26	5.06	2.16	4.56
C[C@H](Nc1ncnc2[nH]cnc12)c1cc2ccc(F)cc2nc1-c1ccccn1 [AMG319] (top concentration 1000 nM)	-1.42	-1.02	19.3	-0.12	-0.92	-1.42	-1.42	0.48	7.58	3.68	-1.42	-1.42	-1.42	-1.42	-1.42	-1.02	10.1	0.68	-1.42	-1.42
C=CCn1c(=O)c2cnc(Nc3ccc(N4CCN(C)CC4)cc3)nc2n1-c1cccc(C(C)(C)O)n1 [AZD1775] (top concentration 10000 nM)	7.04	13.5	17.2	-1.66	11.5	7.84	13.7	14.7	4.94	11	14.1	14.2	9.44	10.5	13.9	10.8	18.8	1.94	20.5	5.54
NC(=O)Nc1cc(-c2cccc(F)c2)sc1C(=O)N[C@H]1CCCNC1 [AZD7762] (top concentration 1000 nM)	9.2	-1.1	7.9	-5	2.3	12.9	-0.5	-0.4	-4.2	0.6	19	-0.1	-1.5	5.1	0	1	2.8	0.3	7.6	-3.5
Cc1cc([C@@H](C)Nc2ccccc2C(=O)O)c2nc(N3CCOCC3)cc(=O)n2c1 [AZD-6482] (top concentration 2500 nM)	3.92	7.82	17.6	0.02	2.32	-0.28	3.42	2.22	10.2	5.62	1.92	2.02	2.92	2.82	2.32	4.72	13.6	1.92	-0.18	-0.28
CN(C)Cc1c(C(=O)NCCOc2ccc(C(=O)NO)cc2)oc2ccccc12 [Abexinostat] (top concentration 10000 nM)	6.76	2.26	10.6	-7.54	4.46	6.06	4.36	6.26	8.66	2.76	5.46	4.56	6.76	9.06	4.96	7.56	8.36	6.36	2.36	3.86
S=C(NCc1ccc2c(c1)OCO2)N1CCN(c2ncnc3c2oc2ccccc23)CC1 [Amuvatinib] (top concentration 10000 nM)	1.16	5.56	9.26	6.16	4.16	-1.44	4.56	5.46	10.8	3.86	2.26	1.56	2.66	3.66	10.9	3.76	5.96	2.16	0.96	7.36
CC(=O)OC[C@H]1O[C@@H]([S-])[C@H](OC(C)=O)[C@@H](OC(C)=O)[C@@H]1OC(C)=O.CCP(CC)CC.[Au+] [Auranofin] (top concentration 2500 nM)	0.34	6.04	3.84	-1.06	1.94	5.54	6.34	12.6	0.54	5.34	1.34	2.74	5.64	8.14	-2.36	12.3	8.24	7.34	3.44	0.14
